Key:
[1] = test system: basal cells and pyramidal cells of the airway epithelium; assay: miRNA expression in sorted basal cells versus pyramidal cells (ciliated + secretory), HTS and Agilent chips; design: species or system human; settings: for Modulation of expression of the miRNAs in pyramidal cells (323(−)) relative to basal cells 323(+): HTS and Agilent chips; for Intensity of the level of expression in log2 in pyramidal cells (323(−)): pyramidal cells (ciliated + secretory)
Outline: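 miRNA repertoires measured by high-throughput sequencing or Agilent arrays on total RNA from sorted airway epithelial populations of 3 donors. Sorting used CD151-PE and anti-tissue factor-FITC: double-positive basal versus double-negative ciliated/secretory cells, with DAPI-stained and aggregated cells excluded.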

[2] = test system: human airway epithelial cells (HAECs); assay: High-throughput sequencing (HTS) of miRNAs at four stages of differentiation of HAECs; settings: for Modulation (ratio of the level of intensity of expression in log2 in two stages of differentiation) measured by high-throughput sequencing, D7 − D0 / Modulation (ratio of the level of intensity of expression in log2 in two stages of differentiation) measured by high-throughput sequencing, FC − D7 / Modulation (ratio of the level of intensity of expression in log2 in two stages of differentiation) measured by high-throughput sequencing, WD − D0 / Modulation (ratio of the level of intensity of expression in log2 in two stages of differentiation) measured by high-throughput sequencing, WD − FC / Level of intensity of expression in log2 measured by high-throughput sequencing, D0 / Level of intensity of expression in log2 measured by high-throughput sequencing, D7 / Level of intensity of expression in log2 measured by high-throughput sequencing, FC / Level of intensity of expression in log2 measured by high-throughput sequencing, WD: Table VI; for Modulation (ratio of the level of intensity of expression in log2 in two stages of differentiation), D7 − D0 / Modulation (ratio of the level of intensity of expression in log2 in two stages of differentiation), FC − D7 / Modulation (ratio of the level of intensity of expression in log2 in two stages of differentiation), WD − FC / Abundance (%), D0 / Abundance (%), D7 / Abundance (%), FC / Abundance (%), WD: HTS; for Abundance (%), D0: ALI-D0; for Abundance (%), D7: ALI-D7; for Abundance (%), FC: ALI-FC; for Abundance (%), WD: ALI-WD; for Level of intensity of expression in log2 At the differentiated stage (WD) measured in HTS: healthy human airway epithelial tissue; for Level of intensity of expression in log2 measured by high-throughput sequencing, D0: stage D0; for Level of intensity of expression in log2 measured by high-throughput sequencing, D7: stage D7; for Level of intensity of expression in log2 measured by high-throughput sequencing, FC: stage FC; for Level of intensity of expression in log2 At the differentiated stage (WD) measured in HTS / Level of intensity of expression in log2 measured by high-throughput sequencing, WD: stage WD
Outline: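 Total RNA including small RNAs was taken from air-liquid interface cultures at ALI-D0, ALI-D7, ALI-FC (first cilia, ~14 days) and ALI-WD (~21 days). SOLiD small-RNA libraries were sequenced, and 5p/3p reads were normalized to 10^6 sequences and expressed as percentage abundance.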

[3] = test system: human airway epithelial cells (HAECs); assay: Agilent miRNA chips, miRNA expression at four stages of differentiation of HAECs; settings: for Modulation (ratio of the level of intensity of expression in log2 in two stages of differentiation) measured with the Agilent chips, D7 − D0 / Modulation (ratio of the level of intensity of expression in log2 in two stages of differentiation) measured with the Agilent chips, FC − D7 / Modulation (ratio of the level of intensity of expression in log2 in two stages of differentiation) measured with the Agilent chips, WD − D0 / Modulation (ratio of the level of intensity of expression in log2 in two stages of differentiation) measured with the Agilent chips, WD − FC / Level of intensity of expression in log2 measured with the Agilent chips, D0 / Level of intensity of expression in log2 measured with the Agilent chips, D7 / Level of intensity of expression in log2 measured with the Agilent chips, FC / Level of intensity of expression in log2 measured with the Agilent chips, WD: Table VI; for Level of intensity of expression in log2 measured with the Agilent chips, D0: stage D0; for Level of intensity of expression in log2 measured with the Agilent chips, D7: stage D7; for Level of intensity of expression in log2 measured with the Agilent chips, FC: stage FC; for Level of intensity of expression in log2 measured with the Agilent chips, WD: stage WD
Outline: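 Expression was profiled on Human miRNA Microarray v2 chips covering 866 human and 89 human viral miRNAs from miRBase v12.0. Labelled HAEC RNA came from the same patients used for sequencing and was hybridized per kit protocol. Chip and sequencing results were compared.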

Substance	Modulation of expression of the miRNAs in pyramidal cells (323(−)) relative to basal cells 323(+) [1]	Intensity of the level of expression in log2 in basal cells (323(+)) [1]	Intensity of the level of expression in log2 in pyramidal cells (323(−)) [1]	Modulation (ratio of the level of intensity of expression in log2 in two stages of differentiation) measured by high-throughput sequencing, D7 − D0 [2]	Modulation (ratio of the level of intensity of expression in log2 in two stages of differentiation) measured by high-throughput sequencing, FC − D7 [2]	Modulation (ratio of the level of intensity of expression in log2 in two stages of differentiation), D7 − D0 [2]	Modulation (ratio of the level of intensity of expression in log2 in two stages of differentiation), FC − D7 [2]	Modulation (ratio of the level of intensity of expression in log2 in two stages of differentiation), WD − FC [2]	Abundance (%), D0 [2]	Abundance (%), D7 [2]	Abundance (%), FC [2]	Abundance (%), WD [2]	Modulation (ratio of the level of intensity of expression in log2 in two stages of differentiation) measured by high-throughput sequencing, WD − D0 [2]	Modulation (ratio of the level of intensity of expression in log2 in two stages of differentiation) measured by high-throughput sequencing, WD − FC [2]	Level of intensity of expression in log2 At the differentiated stage (WD) measured in HTS [2]	Level of intensity of expression in log2 measured by high-throughput sequencing, D0 [2]	Level of intensity of expression in log2 measured by high-throughput sequencing, D7 [2]	Level of intensity of expression in log2 measured by high-throughput sequencing, FC [2]	Level of intensity of expression in log2 measured by high-throughput sequencing, WD [2]	Modulation (ratio of the level of intensity of expression in log2 in two stages of differentiation) measured with the Agilent chips, D7 − D0 [3]	also measured
hsa-miR-29a: human miRNA, SEQ ID No. 31 (UAGCACCAUCUGAAAUCGGUUA; expressed or natural sequence; listed as Homo sapiens)	−2.95	11.09 log2	8.14 log2	−1.34 log2	−0.11 log2	−1.34 log2	−0.11 log2	0.02 log2	17.01%	6.72%	6.02%	4.64%	−1.43 log2	0.02 log2	14.53 log2	16.24 log2	14.90 log2	14.79 log2	14.81 log2	0.17 log2	Modulation (ratio of the level of intensity of expression in log2 in two stages of differentiation) measured with the Agilent chips, FC − D7 ([3]; FC − D7): −0.71 log2; Modulation (ratio of the level of intensity of expression in log2 in two stages of differentiation) measured with the Agilent chips, WD − D0 [3]: −0.38 log2; Modulation (ratio of the level of intensity of expression in log2 in two stages of differentiation) measured with the Agilent chips, WD − FC ([3]; WD − FC): 0.16 log2; Level of intensity of expression in log2 measured with the Agilent chips, D0 [3]: 11.23 log2; Level of intensity of expression in log2 measured with the Agilent chips, D7 [3]: 11.40 log2; Level of intensity of expression in log2 measured with the Agilent chips, FC [3]: 10.69 log2; Level of intensity of expression in log2 measured with the Agilent chips, WD [3]: 10.85 log2
hsa-miR-29c: human miRNA, SEQ ID No. 32 (UAGCACCAUUUGAAAUCGGUUA; expressed or natural sequence; listed as Homo sapiens)	−3.06	11.06 log2	8.00 log2	0.82 log2	0.02 log2	0.82 log2	0.02 log2	0.03 log2	2.84%	5.03%	4.95%	3.82%	0.87 log2	0.03 log2	9.74 log2	13.66 log2	14.48 log2	14.50 log2	14.53 log2	1.61 log2	Modulation (ratio of the level of intensity of expression in log2 at two stages of differentiation), FC − D7 ([3]; FC − D7, Agilent miRNA chips, Table V): −0.28 log2; Modulation (ratio of the level of intensity of expression in log2 in two stages of differentiation) measured with the Agilent chips, FC − D7 ([3]; FC − D7): −0.28 log2; Modulation (ratio of the level of intensity of expression in log2 in two stages of differentiation) measured with the Agilent chips, WD − D0 [3]: 1.57 log2; Modulation (ratio of the level of intensity of expression in log2 at two stages of differentiation), WD − FC ([3]; WD − FC, Agilent miRNA chips, Table V): 0.24 log2; Modulation (ratio of the level of intensity of expression in log2 in two stages of differentiation) measured with the Agilent chips, WD − FC ([3]; WD − FC): 0.24 log2; Level of intensity of expression in log2 measured with the Agilent chips, D0 [3]: 9.04 log2; Level of intensity of expression in log2 measured with the Agilent chips, D7 [3]: 10.66 log2; Level of intensity of expression in log2 measured with the Agilent chips, FC [3]: 10.38 log2; Level of intensity of expression in log2 measured with the Agilent chips, WD [3]: 10.62 log2
